Experimental data from patent US10493061B2, “Compositions and methods comprising 2-(acylamino)imidazoles” (priority 2014, dated 2019).

Assays:
[1] = system: mouse metallothionein expression (MT1 and MT2) in renal and hepatic tissue; experiment: RT-PCR of metallothionein expression in tissue of treated mice; type: in vivo, FVB/NJ mice; conditions: ZNA 100 mg/kg intraperitoneal
Method: Real-Time PCR (RT-PCR): For experiments designed to measure gene expression, real-time PCR (RT-PCR) was conducted using a LightCycler 480 (Roche, Basel, Switzerland) and KAPA SYBR FAST qPCR Master Mix (Kapa Biosystems, Boston, Mass., USA). […] Genomic DNA was removed with a DNase digest and 1 μg of RNA was used to synthesize cDNA using a Superscript III Reverse Transcriptase kit from Invitrogen per the manufacturer's protocol; after an RNase H digestion, RT-PCR was performed in a 5 μL reaction using KAPA SYBR FAST qPCR Master Mix (Kapa Biosystems, Boston, Mass., USA). […]; Nat Protocols 2008; 3(6):1101-08. For tissue derived from mouse in vivo experiments, fresh tissue was homogenized using a TissueLyser II for 3 minutes at 30 Hz before isolating RNA.
The next experiment established the relevancy of the biological pathways targeted by ZNA in a whole organism tumor model. To establish bioactivity, the response of normal tissue to ZNA was evaluated. Non-tumor bearing FVB/NJ mice were treated with ZNA (at 100 mg/kg administered via intraperitoneal injection) or a control for either 3 or 24 hours. RT-PCR was used to assess mouse metallothionein expression (MT1 and MT2) in renal and hepatic tissue from the treated mice.

[2] = system: MCF-10A normal mammary epithelial cell line; experiment: Cell viability (ATP quantification) with exogenously added transition metals
Method: Three breast cancer cell lines (MCF-7, T47D, and MDA-MB-231) and a normal mammary epithelial cell line (MCF-10A) were treated with 30 μM ZNA in conjunction with 30 M CuSO4, ZnSO4, Fe(III)Cl3, Fe(II)SO4, NiSO4, MnCl2, or CoCl2 for 48 hours; following the completion of treatment, cell viability was measured using an ATP quantification assay (FIG. 2A).

[3] = system: LC3 in MCF-10A cells; experiment: Western blot of autophagosome-associated protein LC3A/B; type: cell-based, human
Method: Western blot analysis: For analysis of protein expression by Western blot analysis, the procedure set forth in Gligorich et al. was used. Gligorich K, Vaden R, Shelton D, Wang G, Matsen C, Looper R, et al. Development of a screen to identify selective small molecules active against patient-derived metastatic and chemoresistant breast cancer cells. Breast Cancer Res 2013; 15(4):R58. The cells were cultured and treated in 10-cm plates. Cells were harvested in cold radioimmunoprecipitation assay (RIPA) buffer (50 mM Tris-HCl, 150 mM NaCl, 0.1% sodium dodecyl sulfate (SDS), 0.5% sodium deoxycholate, and 1% Triton X-100) supplemented with protease and phosphatase inhibitors (Sigma). Protein concentration was measured using a BCA assay (Thermo Scientific) and […] of protein was resolved by gel electrophoresis using an SDS polyacrylamide gel. Protein was transferred to an Immobilon-FL PVDF membrane (Millipore, Billerica, Mass., USA) and the membrane was blocked for 1 hour at room temperature with Odyssey blocking buffer (Li—COR). […]
Further cell death characterization studies were also conducted to establish the role of autophagy in ZNA-mediated cell death. To assess the level of autophagic induction following treatment with ZNA, levels of the autophagosome-associated protein LC3A/B were measured by western blot analysis. […]

[4] = system: untransformed MCF-10A cells; experiment: Clonogenic cell survival assay; conditions: 24 hours ZNA, then three weeks of growth, crystal violet
Method: Clonogenic cell survival assays were conducted as described in Franken NAP, Rodermond H M, Stap J, Haveman J, van Bree C.
Further experiments were also conducted to assess the effects of short-term ZNA treatment on long-term cell survival and proliferation. Cells were treated for 24 hours with ZNA then cultured in the absence of the small molecule; following three weeks of growth, colonies were stained with crystal violet and quantified (FIG. 1D).

## COc1ccc(-c2c(Cc3ccccc3)[nH]/c(=N\C(=O)c3ccccc3F)n2C)cc1 [ZNA, (E)-N-(4-benzyl-5-(4-methoxyphenyl)-1-methyl-1H-imidazol-2(3H)-ylidene)-2-fluorobenzamide]
[1]; 3 hours, vs control treated mice
  MT1 and MT2 expression: increased
[1]; 24 hours
  MT1 and MT2 expression: decreased
[2]; 30 μM ZNA with CuSO4, 48 hours
  cell viability: significant reduction in cell viability
[2]; 30 μM ZNA with ZnSO4, 48 hours
  cell viability: only a partial reduction in cell number
[3]; 30 μM ZNA with 30 μM ZnSO4, 6 hours
  LC3 protein: significant increases were not observed
[3]; ZNA alone, 48 and 72 hours
  LC3 level: only in the cancer cell lines
[4]
  long-term proliferative potential (colonies): greatly attenuated
